ChEMBL document CHEMBL3714732, “Small molecule modulators of g protein-coupled receptor six” (2001)

Assays:
Format in all cases: functional
[1] = target: T1, G-protein coupled receptor 6 (Homo sapiens, UniProt P46095); assay: Inverse agonist activity at rat G-protein GSalpha fused GPR6 (unknown origin) expressed in HEK293 cell membranes assessed as effect on [35S]GTPgammaS binding pre-incubated for 5 to 10 mins followed by 60 mins incubation in presence of [35S]GTPgammaS by scintillation proximity assay
[2] = target: T1, G-protein coupled receptor 6; assay: Inverse agonist activity at rat G-protein GSalpha fused GPR6 (unknown origin) expressed in HEK293 cell membranes assessed as cAMP accumulation pre-incubated for 30 mins by microbeta plate reader based assay
[3] = tested on: Rattus norvegicus; assay: Reduction in body weight gain in 24 hrs food-deprived Sprague-Dawley rat assessed as body weight gain level at 100 umol/kg, po followed by standard chow pellets feeding and measured 6 hrs post dose (reference value: 19.25 to 20.3g)
[4] = tested on: Rattus norvegicus; assay: Reduction in food intake in 24 hrs food-deprived Sprague-Dawley rat assessed as food intake level per 2 hrs at 100 umol/kg, po followed by standard chow pellets feeding and measured 8 hrs post dose (reference value: 2 to 2.5g/2 hrs)
[5] = tested on: Rattus norvegicus; assay: Reduction in water intake in 24 hrs food-deprived Sprague-Dawley rat assessed as water intake level at 100 umol/kg, po followed by standard chow pellets feeding and measured 8 hrs post dose (reference value: 19g)
[6] = tested on: Rattus norvegicus; assay: Reduction in body weight gain in 24 hrs food-deprived Sprague-Dawley rat assessed as body weight at 100 umol/kg, po followed by standard chow pellets feeding and measured 8 hrs post dose (reference value: 19.5g)
[7] = tested on: Rattus norvegicus; assay: Reduction in food intake in 24 hrs food-deprived Sprague-Dawley rat assessed as food intake level at 100 umol/kg, po followed by standard chow pellets feeding and measured 8 hrs post dose (reference value: 14 to 14.5g)

T1 sequence (P46095 whole entry, the tested form may be a part): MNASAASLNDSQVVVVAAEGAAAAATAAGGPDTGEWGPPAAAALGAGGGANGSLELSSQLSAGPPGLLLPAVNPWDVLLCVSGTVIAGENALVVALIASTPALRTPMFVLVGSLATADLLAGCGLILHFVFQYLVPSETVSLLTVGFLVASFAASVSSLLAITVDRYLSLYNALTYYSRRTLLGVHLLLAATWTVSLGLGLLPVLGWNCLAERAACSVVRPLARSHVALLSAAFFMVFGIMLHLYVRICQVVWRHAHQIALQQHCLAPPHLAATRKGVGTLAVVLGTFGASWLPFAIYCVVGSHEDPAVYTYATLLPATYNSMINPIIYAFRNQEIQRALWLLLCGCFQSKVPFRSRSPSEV

SMILES	IC50 [1]	IC50 [2]	other results
CC(C)(C)c1ccc(C(=O)/N=C2\SSC3=NCCN32)cc1	650 nM	370 nM	
O=C(/N=C1\SSC2=NCCN21)c1ccccc1F	350 nM	100 nM	
CSc1ncccc1C(=O)NC(=S)N1CCNC1=S	200000 nM		
COc1ccc(C(=O)/N=C2\SSC3=NCCN32)cc1	830 nM	210 nM	
O=C(/N=C1\SSC2=NCCN21)c1ccno1	330 nM	100 nM	
O=C(/N=C1\SSC2=NCCN21)c1cccnc1	670 nM	133 nM	
O=C(NC(=S)N1CCNC1=S)c1ccno1	2430 nM	5830 nM	

More lines, in order of falling IC50 [1], values ahead:

IC50 [1]	IC50 [2]	SMILES	other results
200000 nM	200000 nM	O=C(NC(=S)N1CCNC1=S)c1cnn(-c2ccc(Cl)cc2)c1C(F)(F)F	
200000 nM		O=C(NC(=S)N1CCNC1=S)c1cccc2ccccc12	
2460 nM		Cc1onc(-c2ccccc2)c1C(=O)/N=C1\SSC2=NCCN21	
250 nM	110 nM	O=C(/N=C1\SSC2=NCCN21)c1ccco1	
190 nM		O=C(/N=C1\SSC2=NCCN21)c1cnn(-c2ccc(Cl)cc2)c1C(F)(F)F	
170 nM	170 nM	O=C(/N=C1\SSC2=NCCN21)c1ccc2ccccc2c1	Activity [3]: 11 g; Activity [4]: 1 g; Activity [5]: 4 g; Activity [6]: 11 g; Activity [7]: 9 g
